Measurements published in patent US20240360151A1 (SANOFI, priority 2023, published 2024).

How the values were obtained:
[1] = system: NF-kB pathway (TNF-α secretion by THP-1 cells); test: TNF-α secretion assay in LPS-stimulated THP-1 cells, Lumit immunoassay; assay type: cell-based, human; conditions: Homo sapiens, THP-1, 3 h, monocytic THP-1 cells, LPS 10 ng/mL, relative IC50, 10 concentrations, geometric mean
Protocol: Monocytic THP-1 cells were maintained in RPMI 1640 media (Gibco 21875)+10% FBS, (Gibco 10500)+1% penicillin/streptomycin (Gibco 15140-122). Cells were then plated at 40,000 cells per well in 384-well cell culture plates (Corning 3542) and maintained with RPMI1640 (Gibco 11835)+5% FBS, (Gibco 10500). Experimental compounds were prepared and added as described above. TNF-α secretion was triggered by the addition of 10 ng/mL LPS (invivoGen, tlrl-3pelps) and cells were incubated for 3 hours. TNF-α levels were monitored directly in the cells plate using an Lumit assay (Lumit TNFa-Human Immunoassay—Promega W6051) according to manufacturers' instructions.
Data were expressed as percentage of inhibition (I %) as compared to a maximum signal control containing no small molecule (I %=0%) according to the formula: 1%=(1−((Sample−Min))/((Max−Min)))×100, where: • Sample: Signal obtained in the presence of each compound tested, • Max: Maximum signal in the absence of compound added, • Min: Minimum or background signal obtained in the absence of activation signal.
Relative IC50 (IC50 rel) were obtained from a dose response curve with 10 concentrations. Final IC50 rels are expressed as the geometric mean.
Relative IC50 values were estimated with Biost@t-SPEED v2.4 internal software based on SAS system using the 4-parameter logistic model according to Ratkovsky and Reedy (D. A. Ratkovsky, T. J. Reedy, Choosing near-linear parameters in the four parameters logistic model radioligands and related assays. Biometrics, 42 (1986), 575-582): Y=A+C/((1+exp(−B*(log(X)−M)))), where: • A: Lower asymptote (BOTTOM), • A+C: Upper asymptote (TOP), • M: the logarithm of the concentration estimated at the inflexion point (the logarithm of the relative IC50), • B: Slope at the inflexion point of the curve.

NLRP3 inflammasome = biological target: T1, NLRP3 inflammasome (Homo sapiens, UniProt Q96P20); test: IL-1β secretion assay (NLRP3 IC50) in LPS-primed, nigericin-activated THP-1 cells, HTRF; assay type: cell-based; conditions: monocytic THP-1 cells; LPS 10 ng/mL 3 h priming, then compound + nigericin 10 μM 2 h; relative IC50, 10 concentrations, geometric mean
T1 construct: endogenous in cells; host or cells: THP-1 monocytic cells
T1 sequence (Q96P20 whole entry): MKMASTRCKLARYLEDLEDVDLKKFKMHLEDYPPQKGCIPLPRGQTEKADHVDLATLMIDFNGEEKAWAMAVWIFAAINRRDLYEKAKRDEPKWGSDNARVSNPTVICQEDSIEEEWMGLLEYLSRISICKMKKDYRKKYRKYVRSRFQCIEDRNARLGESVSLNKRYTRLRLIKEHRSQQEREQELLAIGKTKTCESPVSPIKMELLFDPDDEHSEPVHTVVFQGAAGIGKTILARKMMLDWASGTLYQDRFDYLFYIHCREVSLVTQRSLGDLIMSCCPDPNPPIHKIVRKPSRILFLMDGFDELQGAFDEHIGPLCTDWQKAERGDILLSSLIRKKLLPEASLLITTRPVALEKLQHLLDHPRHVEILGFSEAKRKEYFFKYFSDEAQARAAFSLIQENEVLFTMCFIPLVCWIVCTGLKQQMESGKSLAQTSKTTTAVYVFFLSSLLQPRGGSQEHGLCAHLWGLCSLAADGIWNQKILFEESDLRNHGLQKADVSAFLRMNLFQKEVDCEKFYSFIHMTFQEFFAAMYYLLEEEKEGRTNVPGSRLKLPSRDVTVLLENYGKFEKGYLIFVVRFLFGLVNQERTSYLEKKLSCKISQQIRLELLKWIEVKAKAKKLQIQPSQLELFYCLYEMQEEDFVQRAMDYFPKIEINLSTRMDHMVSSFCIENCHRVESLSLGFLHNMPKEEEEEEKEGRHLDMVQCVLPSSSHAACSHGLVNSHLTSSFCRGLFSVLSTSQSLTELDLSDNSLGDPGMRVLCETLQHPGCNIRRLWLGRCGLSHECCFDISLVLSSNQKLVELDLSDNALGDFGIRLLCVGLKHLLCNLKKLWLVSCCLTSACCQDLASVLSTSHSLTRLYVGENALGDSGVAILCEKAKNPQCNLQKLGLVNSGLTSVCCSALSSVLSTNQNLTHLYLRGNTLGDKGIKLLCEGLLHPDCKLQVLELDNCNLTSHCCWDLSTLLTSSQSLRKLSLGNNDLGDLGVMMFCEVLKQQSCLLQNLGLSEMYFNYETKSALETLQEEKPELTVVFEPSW
How it was run: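 THP-1 cells primed with LPS 10 ng/mL for 3 h at 37° C., then compound (10-point 1:3 dilution, 0.1% DMSO) added with 10 μM nigericin for 2 h. Supernatant IL-1β measured by HTRF; relative IC50 from a 4-parameter logistic fit, reported as geometric mean.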

| SMILES | IC50 [1] [nM] | IC50 (NLRP3 inflammasome) [nM] |
| --- | --- | --- |
| Cc1cc(C)c(-c2ccc(N3CCO[C@@H]4COCC[C@H]43)nn2)c(O)c1 (racemic) [Example 154, 3,5-dimethyl-2-[6-[rac-(4aR,8aS)-3,4a,5,7,8,8a-hexahydro-2H-pyrano[3,4-b][1,4]oxazin-1-yl]pyridazin-3-yl]phenol] | > 10000 | 344 |
| Cc1cc(C)c(-c2ccc(N3CCO[C@H]4CCNC[C@H]43)nn2)c(O)c1 (racemic) [Example 195, 3,5-dimethyl-2-[6-[rac-(4aR,8aS)-2,3,4a,5,6,7,8,8a-octahydropyrido[4,3-b][1,4]oxazin-4-yl]pyridazin-3-yl]phenol] | > 10000 | 14 |
| CCN1CC[C@@H]2OCCN(c3ccc(-c4c(C)cc(C)cc4O)nn3)[C@@H]2C1 (racemic) [Example 209, 2-[6-[rac-(4aR,8aS)-6-ethyl-3,4a,5,7,8,8a-hexahydro-2H-pyrido[4,3-b][1,4]oxazin-4-yl]pyridazin-3-yl]-3,5-dimethyl-phenol] | > 10000 | 2 |
| CC(=O)N1CC[C@@H]2OCCN(c3ccc(-c4c(C)cc(C)cc4O)nn3)[C@@H]2C1 (racemic) [Example 213, 1-[rac-(4aR,8aS)-4-[6-(2-hydroxy-4,6-dimethyl-phenyl)pyridazin-3-yl]-3,4a,5,7,8,8a-hexahydro-2H-pyrido[4,3-b][1,4]oxazin-6-yl]ethanone] | > 10000 | 115 |
| C#Cc1cc(C)c(-c2ccc(N3CCO[C@H](CO)C3)nn2)c(O)c1 [Example 508, 5-ethynyl-2-[6-[(2S)-2-(hydroxymethyl)morpholin-4-yl]pyridazin-3-yl]-3-methyl-phenol] |  | 40 |
| Cc1cc(O)c(-c2ccc(N3CCO[C@H](CO)C3)nn2)c(C(F)(F)F)c1 [Example 509, 2-[6-[(2S)-2-(hydroxymethyl)morpholin-4-yl]pyridazin-3-yl]-5-methyl-3-(trifluoromethyl)phenol] |  | 16 |
| CC(=O)N1CC[C@H]2CCN(c3cc(C)c(-c4ccc(C(F)(F)F)cc4O)nn3)[C@H]2C1 [Example 514, 1-[(3aR,7aR)-1-[6-[2-hydroxy-4-(trifluoromethyl)phenyl]-5-methyl-pyridazin-3-yl]-3,3a,4,5,7,7a-hexahydro-2H-pyrrolo[2,3-c]pyridin-6-yl]ethanone] |  | 196 |
| Cc1cc(C(F)(F)F)cc(O)c1-c1ccc(N2CCC[C@H]3[C@@H]2CCCN3C)nn1 [Example 515, 2-[6-[(4aS,8aS)-5-methyl-2,3,4,4a,6,7,8,8a-octahydro-1,5-naphthyridin-1-yl]pyridazin-3-yl]-3-methyl-5-(trifluoromethyl)phenol] |  | 44 |
| Cc1cc(C(F)(F)F)cc(O)c1-c1ccc(N2CCC[C@@H]3[C@H]2CCCN3C)nn1 [Example 516, 2-[6-[(4aR,8aR)-5-methyl-2,3,4,4a,6,7,8,8a-octahydro-1,5-naphthyridin-1-yl]pyridazin-3-yl]-3-methyl-5-(trifluoromethyl)phenol] |  | 1080 |
| Cc1cc(C)c(-c2ccc(N3CCC[C@@H]4CCN(C)C[C@@H]43)nn2)c(O)c1 [Example 519, 2-[6-[(4aR,8aR)-7-methyl-2,3,4,4a,5,6,8,8a-octahydro-1,7-naphthyridin-1-yl]pyridazin-3-yl]-3,5-dimethyl-phenol] |  | 7 |
| Cc1cc(C)c(-c2ccc(N3CCC[C@H]4CCN(C)C[C@@H]43)nn2)c(O)c1 [Example 520, 2-[6-[(4aS,8aR)-7-methyl-2,3,4,4a,5,6,8,8a-octahydro-1,7-naphthyridin-1-yl]pyridazin-3-yl]-3,5-dimethyl-phenol] |  | 55 |
| Cc1cc(Cl)cc(O)c1-c1ccc(N2CCO[C@@H]3CCN(CCF)C[C@@H]32)nn1 [Example 522, 2-[6-[(4aS,8aR)-6-(2-fluoroethyl)-3,4a,5,7,8,8a-hexahydro-2H-pyrido[4,3-b][1,4]oxazin-4-yl]pyridazin-3-yl]-5-chloro-3-methyl-phenol] |  | 21 |
| Cc1cc(C(F)(F)F)cc(O)c1-c1ccc(N2CCC[C@@H]3CCN(C)C[C@@H]32)nn1 [Example 523, 2-[6-[(4aR,8aR)-7-methyl-2,3,4,4a,5,6,8,8a-octahydro-1,7-naphthyridin-1-yl]pyridazin-3-yl]-3-methyl-5-(trifluoromethyl)phenol] |  | 681 |
| Cc1cc(C(F)(F)F)cc(O)c1-c1ccc(N2CCC[C@H]3CCN(C)C[C@H]32)nn1 [Example 524, 2-[6-[(4aS,8aS)-7-methyl-2,3,4,4a,5,6,8,8a-octahydro-1,7-naphthyridin-1-yl]pyridazin-3-yl]-3-methyl-5-(trifluoromethyl)phenol] |  | 8 |
| Oc1cc(Cl)ccc1-c1ccc(N2CCO[C@@H]3CCN(CCF)C[C@@H]32)nn1 [Example 525, 2-[6-[(4aS,8aR)-6-(2-fluoroethyl)-3,4a,5,7,8,8a-hexahydro-2H-pyrido[4,3-b][1,4]oxazin-4-yl]pyridazin-3-yl]-5-chloro-phenol] |  | 631 |
| CCc1cc(Cl)cc(O)c1-c1ccc(N2CCO[C@@H]3CCN(CC)C[C@@H]32)nn1 [Example 526, 2-[6-[(4aS,8aR)-6-ethyl-3,4a,5,7,8,8a-hexahydro-2H-pyrido[4,3-b][1,4]oxazin-4-yl]pyridazin-3-yl]-5-chloro-3-ethyl-phenol] |  | 1 |
| Cc1cc(C)c(-c2ccc(N3CCO[C@@H]4CCN(CCCF)C[C@@H]43)nn2)c(O)c1 [Example 527, 2-[6-[(4aS,8aR)-6-(3-fluoropropyl)-3,4a,5,7,8,8a-hexahydro-2H-pyrido[4,3-b][1,4]oxazin-4-yl]pyridazin-3-yl]-3,5-dimethyl-phenol] |  | 20 |

Second part, the compound after the results:

| IC50 [1] [nM] | IC50 (NLRP3 inflammasome) [nM] | SMILES |
| --- | --- | --- |
| > 10000 | 251 | Cc1cc(C)c(-c2ccc(N3CCO[C@H]4CN(C5CCC5)CC[C@H]43)nn2)c(O)c1 (racemic) [Example 4, 3,5-dimethyl-2-[6-[rac-(4aS,8aR)-6-cyclobutyl-3,4a,5,7,8,8a-hexahydro-2H-pyrido[3,4-b][1,4]oxazin-1-yl]pyridazin-3-yl]phenol] |
| > 10000 | 9 | Cc1cc(C(F)(F)F)cc(O)c1-c1ccc(N2CCO[C@H]3CCNC[C@H]32)nn1 (racemic) [Example 197, 2-[6-[rac-(4aR,8aS)-2,3,4a,5,6,7,8,8a-octahydropyrido[4,3-b][1,4]oxazin-4-yl]pyridazin-3-yl]-3-methyl-5-(trifluoromethyl)phenol] |
| > 10000 | 1 | CCN1CC[C@@H]2OCCN(c3ccc(-c4c(C)cc(C(F)(F)F)cc4O)nn3)[C@@H]2C1 (racemic) [Example 210, 2-[6-[rac-(4aR,8aS)-6-ethyl-3,4a,5,7,8,8a-hexahydro-2H-pyrido[4,3-b][1,4]oxazin-4-yl]pyridazin-3-yl]-3-methyl-5-(trifluoromethyl)phenol] |
|  | 6 | Cc1cc(N2CCO[C@@H]3CCN(C)C[C@@H]32)nnc1-c1ccc(F)cc1O [Example 480, 2-[6-[(4aS,8aR)-6-methyl-3,4a,5,7,8,8a-hexahydro-2H-pyrido[4,3-b][1,4]oxazin-4-yl]-4-methyl-pyridazin-3-yl]-5-fluoro-phenol] |
|  | 2 | CCc1cc(C(F)(F)F)cc(O)c1-c1ccc(N2CCO[C@@H]3CCN(C)C[C@@H]32)nn1 [Example 481, 2-[6-[(4aS,8aR)-6-methyl-3,4a,5,7,8,8a-hexahydro-2H-pyrido[4,3-b][1,4]oxazin-4-yl]pyridazin-3-yl]-3-ethyl-5-(trifluoromethyl)phenol] |
|  | 1340 | Cc1cc(C)c(-c2ccc(N3CCC[C@@H]4CCN(C)C[C@H]43)nn2)c(O)c1 [Example 517, 2-[6-[(4aR,8aS)-7-methyl-2,3,4,4a,5,6,8,8a-octahydro-1,7-naphthyridin-1-yl]pyridazin-3-yl]-3,5-dimethyl-phenol] |
|  | 1220 | Cc1cc(C)c(-c2ccc(N3CCC[C@H]4CCN(C)C[C@H]43)nn2)c(O)c1 [Example 518, 2-[6-[(4aS,8aS)-7-methyl-2,3,4,4a,5,6,8,8a-octahydro-1,7-naphthyridin-1-yl]pyridazin-3-yl]-3,5-dimethyl-phenol] |
|  | 28 | Cc1cc(C)c(-c2ccc(N3CCO[C@@H]4CCN(CCF)C[C@@H]43)nn2)c(O)c1 [Example 521, 2-[6-[(4aS,8aR)-6-(2-fluoroethyl)-3,4a,5,7,8,8a-hexahydro-2H-pyrido[4,3-b][1,4]oxazin-4-yl]pyridazin-3-yl]-3,5-dimethyl-phenol] |
